{"source": "patent US20250176599A1", "about": "“FLAVOR COMPOSITION AND FOOD AND BEVERAGE” (TAKASAGO INTERNATIONAL CORPORATION, priority 2021, published 2025)", "key": {"[1]": {"test": "Sensory evaluation of aqueous solution III containing 1-octen-3-one 1 ppb: off-flavor intensity and masking component intensity", "settings": "average panel score", "experimental": "(§1) In ion-exchanged water, each degradation component was added to achieve the concentrations listed in Table 1, and aqueous solutions I to VI containing these degradation components were prepared.\n(§2) For the aforementioned aqueous solutions containing degradation components, nootkatone was added at the concentrations listed in Table 2 to confirm the intensity of the off-flavor (masking effect) in each sample and the intensity of the masking component itself (the impact on the flavor of the food and/or beverage itself).\n(§3) The test was conducted as follows. Eight experienced panelists were selected to conduct a sensory evaluation. The intensity of the off-flavor of the aqueous solution containing the degradation components derived from unsaturated fatty acids, without added masking components, was set as “Evaluation: 4.” The ion-exchanged water free of any degradation components was set as “Evaluation: 0.” The intensity of the off-flavor (masking effect) of each sample was then relatively evaluated according to the following evaluation criteria.\n(§4) • Off-flavor is strongly sensed: 4 points • Off-flavor is sensed: 3 points • Off-flavor is slightly sensed: 2 points • Off-flavor is barely sensed: 1 point • Off-flavor is not sensed at all: 0 points\n(§5) Also, the intensity of the masking components (impact on the flavor of the food and/or beverage itself) was absolutely evaluated according to the following evaluation criteria.\n(§6) • Masking component is strongly sensed: 4 points • Masking component is sensed: 3 points • Masking component is slightly sensed: 2 points • Masking component is barely sensed: 1 point • Masking component is not sensed at all: 0 points"}, "[2]": {"test": "Overall conclusion of the sensory evaluation across aqueous solutions I to VI", "experimental": "as §1, §2, §3, §4, §5, §6"}, "[3]": {"test": "Sensory evaluation of aqueous solution IV containing 1,5-octadien-3-one 100 ppt: off-flavor intensity and masking component intensity", "settings": "aqueous solution IV, average panel score", "experimental": "as §1, §2, §3, §4, §5, §6"}, "[4]": {"test": "Sensory evaluation of aqueous solution VI containing 1,5-octadien-3-ol 10 ppb: off-flavor intensity and masking component intensity", "settings": "aqueous solution VI, average panel score", "experimental": "as §1, §2, §3, §4, §5, §6"}, "[5]": {"test": "Sensory evaluation of aqueous solution V containing 1-octen-3-ol 10 ppb: off-flavor intensity and masking component intensity", "settings": "average panel score", "experimental": "as §1, §2, §3, §4, §5, §6"}, "[6]": {"test": "Sensory evaluation of aqueous solution II containing (E)-2-octenal 10 ppb: off-flavor intensity and masking component intensity", "settings": "average panel score", "experimental": "as §1, §2, §3, §4, §5, §6"}, "[7]": {"test": "Sensory evaluation of aqueous solution I containing (E)-2-nonenal 1 ppb: off-flavor intensity and masking component intensity", "settings": "average panel score", "experimental": "as §1, §2, §3, §4, §5, §6"}}}
{"smiles": "CC1CCC(C(C)C)C(OCCO)C1", "note": "(centres unmarked) [2-menthoxyethanol]", "values": [{"measurement": "Masking Component Intensity", "setting": "[1]; 1 ppb added", "result": 0.8}, {"measurement": "Off-Flavor Intensity", "setting": "[1]; 1 ppb added", "result": 3.1}, {"measurement": "Masking Component Intensity", "setting": "[1]; 1 ppm added", "result": 1.9}, {"measurement": "Off-Flavor Intensity", "setting": "[1]; 1 ppm added", "result": 2.4}, {"measurement": "Masking Component Intensity", "setting": "[1]; 10 ppb added", "result": 1.1}, {"measurement": "Off-Flavor Intensity", "setting": "[1]; 10 ppb added", "result": 2.9}, {"measurement": "Masking Component Intensity", "setting": "[1]; 10 ppm added", "result": 2.5}, {"measurement": "Off-Flavor Intensity", "setting": "[1]; 10 ppm added", "result": 2.3}, {"measurement": "Masking Component Intensity", "setting": "[1]; 50 ppm added", "result": 3.8}, {"measurement": "Off-Flavor Intensity", "setting": "[1]; 50 ppm added", "result": 2.0}, {"measurement": "Masking Component Intensity", "setting": "[1]; 100 ppb added", "result": 1.8}, {"measurement": "Off-Flavor Intensity", "setting": "[1]; 100 ppb added", "result": 2.5}, {"measurement": "Masking Component Intensity", "setting": "[1]; 100 ppm added", "result": 3.9}, {"measurement": "Off-Flavor Intensity", "setting": "[1]; 100 ppm added", "result": 2.0}, {"measurement": "Masking Component Intensity", "setting": "[1]; 100 ppt added", "result": 0.6}, {"measurement": "Off-Flavor Intensity", "setting": "[1]; 100 ppt added", "result": 3.3}, {"measurement": "concentration that masks the off-flavor and does not affect the flavor of the food and/or beverage itself, lower limit", "setting": "[2]", "result": "≥ 10", "unit": "ppb"}, {"measurement": "concentration that masks the off-flavor and does not affect the flavor of the food and/or beverage itself, upper limit", "setting": "[2]", "result": "≤ 10", "unit": "ppm"}, {"measurement": "Masking Component Intensity", "setting": "[3]; 1 ppb added", "result": 0.5}, {"measurement": "Off-Flavor Intensity", "setting": "[3]; 1 ppb added", "result": 3.4}, {"measurement": "Masking Component Intensity", "setting": "[3]; 1 ppm added", "result": 2.3}, {"measurement": "Off-Flavor Intensity", "setting": "[3]; 1 ppm added", "result": 2.4}, {"measurement": "Masking Component Intensity", "setting": "[3]; 10 ppb added", "result": 1.0}, {"measurement": "Off-Flavor Intensity", "setting": "[3]; 10 ppb added", "result": 3.0}, {"measurement": "Masking Component Intensity", "setting": "[3]; 10 ppm added", "result": 2.6}, {"measurement": "Off-Flavor Intensity", "setting": "[3]; 10 ppm added", "result": 2.3}, {"measurement": "Masking Component Intensity", "setting": "[3]; 50 ppm added", "result": 3.4}, {"measurement": "Off-Flavor Intensity", "setting": "[3]; 50 ppm added", "result": 1.9}, {"measurement": "Masking Component Intensity", "setting": "[3]; 100 ppb added", "result": 1.6}, {"measurement": "Off-Flavor Intensity", "setting": "[3]; 100 ppb added", "result": 2.5}, {"measurement": "Masking Component Intensity", "setting": "[3]; 100 ppm added", "result": 3.9}, {"measurement": "Off-Flavor Intensity", "setting": "[3]; 100 ppm added", "result": 1.8}, {"measurement": "Masking Component Intensity", "setting": "[3]; 100 ppt added", "result": 0.1}, {"measurement": "Off-Flavor Intensity", "setting": "[3]; 100 ppt added", "result": 3.5}, {"measurement": "Masking Component Intensity", "setting": "[4]; 1 ppb added", "result": 0.6}, {"measurement": "Off-Flavor Intensity", "setting": "[4]; 1 ppb added", "result": 3.3}, {"measurement": "Masking Component Intensity", "setting": "[4]; 1 ppm added", "result": 2.0}, {"measurement": "Off-Flavor Intensity", "setting": "[4]; 1 ppm added", "result": 2.0}, {"measurement": "Masking Component Intensity", "setting": "[4]; 10 ppb added", "result": 1.0}, {"measurement": "Off-Flavor Intensity", "setting": "[4]; 10 ppb added", "result": 2.8}, {"measurement": "Masking Component Intensity", "setting": "[4]; 10 ppm added", "result": 2.5}, {"measurement": "Off-Flavor Intensity", "setting": "[4]; 10 ppm added", "result": 1.9}, {"measurement": "Masking Component Intensity", "setting": "[4]; 50 ppm added", "result": 3.8}, {"measurement": "Off-Flavor Intensity", "setting": "[4]; 50 ppm added", "result": 1.5}, {"measurement": "Masking Component Intensity", "setting": "[4]; 100 ppb added", "result": 1.8}, {"measurement": "Off-Flavor Intensity", "setting": "[4]; 100 ppb added", "result": 2.6}, {"measurement": "Masking Component Intensity", "setting": "[4]; 100 ppm added", "result": 4.0}, {"measurement": "Off-Flavor Intensity", "setting": "[4]; 100 ppm added", "result": 1.3}, {"measurement": "Masking Component Intensity", "setting": "[4]; 100 ppt added", "result": 0.3}, {"measurement": "Off-Flavor Intensity", "setting": "[4]; 100 ppt added", "result": 3.4}, {"measurement": "Masking Component Intensity", "setting": "[5]; 1 ppb added", "result": 0.4}, {"measurement": "Off-Flavor Intensity", "setting": "[5]; 1 ppb added", "result": 3.1}, {"measurement": "Masking Component Intensity", "setting": "[5]; 1 ppm added", "result": 1.8}, {"measurement": "Off-Flavor Intensity", "setting": "[5]; 1 ppm added", "result": 2.3}, {"measurement": "Masking Component Intensity", "setting": "[5]; 10 ppb added", "result": 0.5}, {"measurement": "Off-Flavor Intensity", "setting": "[5]; 10 ppb added", "result": 2.6}, {"measurement": "Masking Component Intensity", "setting": "[5]; 10 ppm added", "result": 2.6}, {"measurement": "Off-Flavor Intensity", "setting": "[5]; 10 ppm added", "result": 2.3}, {"measurement": "Masking Component Intensity", "setting": "[5]; 50 ppm added", "result": 3.5}, {"measurement": "Off-Flavor Intensity", "setting": "[5]; 50 ppm added", "result": 1.8}, {"measurement": "Masking Component Intensity", "setting": "[5]; 100 ppb added", "result": 1.4}, {"measurement": "Off-Flavor Intensity", "setting": "[5]; 100 ppb added", "result": 2.5}, {"measurement": "Masking Component Intensity", "setting": "[5]; 100 ppm added", "result": 3.8}, {"measurement": "Off-Flavor Intensity", "setting": "[5]; 100 ppm added", "result": 1.6}, {"measurement": "Masking Component Intensity", "setting": "[5]; 100 ppt added", "result": 0.1}, {"measurement": "Off-Flavor Intensity", "setting": "[5]; 100 ppt added", "result": 3.3}, {"measurement": "Masking Component Intensity", "setting": "[6]; 1 ppb added", "result": 0.8}, {"measurement": "Off-Flavor Intensity", "setting": "[6]; 1 ppb added", "result": 3.3}, {"measurement": "Masking Component Intensity", "setting": "[6]; 1 ppm added", "result": 2.0}, {"measurement": "Off-Flavor Intensity", "setting": "[6]; 1 ppm added", "result": 2.4}, {"measurement": "Masking Component Intensity", "setting": "[6]; 10 ppb added", "result": 1.1}, {"measurement": "Off-Flavor Intensity", "setting": "[6]; 10 ppb added", "result": 2.9}, {"measurement": "Masking Component Intensity", "setting": "[6]; 10 ppm added", "result": 2.6}, {"measurement": "Off-Flavor Intensity", "setting": "[6]; 10 ppm added", "result": 2.0}, {"measurement": "Masking Component Intensity", "setting": "[6]; 50 ppm added", "result": 3.4}, {"measurement": "Off-Flavor Intensity", "setting": "[6]; 50 ppm added", "result": 1.5}, {"measurement": "Masking Component Intensity", "setting": "[6]; 100 ppb added", "result": 1.6}, {"measurement": "Off-Flavor Intensity", "setting": "[6]; 100 ppb added", "result": 2.5}, {"measurement": "Masking Component Intensity", "setting": "[6]; 100 ppm added", "result": 3.8}, {"measurement": "Off-Flavor Intensity", "setting": "[6]; 100 ppm added", "result": 1.3}, {"measurement": "Masking Component Intensity", "setting": "[6]; 100 ppt added", "result": 0.5}, {"measurement": "Off-Flavor Intensity", "setting": "[6]; 100 ppt added", "result": 3.4}, {"measurement": "Masking Component Intensity", "setting": "[7]; 1 ppb added", "result": 0.5}, {"measurement": "Off-Flavor Intensity", "setting": "[7]; 1 ppb added", "result": 3.4}, {"measurement": "Masking Component Intensity", "setting": "[7]; 1 ppm added", "result": 1.6}, {"measurement": "Off-Flavor Intensity", "setting": "[7]; 1 ppm added", "result": 2.5}, {"measurement": "Masking Component Intensity", "setting": "[7]; 10 ppb added", "result": 0.8}, {"measurement": "Off-Flavor Intensity", "setting": "[7]; 10 ppb added", "result": 3.0}, {"measurement": "Masking Component Intensity", "setting": "[7]; 10 ppm added", "result": 2.3}, {"measurement": "Off-Flavor Intensity", "setting": "[7]; 10 ppm added", "result": 1.8}, {"measurement": "Masking Component Intensity", "setting": "[7]; 50 ppm added", "result": 3.5}, {"measurement": "Off-Flavor Intensity", "setting": "[7]; 50 ppm added", "result": 1.4}, {"measurement": "Masking Component Intensity", "setting": "[7]; 100 ppb added", "result": 1.3}, {"measurement": "Off-Flavor Intensity", "setting": "[7]; 100 ppb added", "result": 2.8}, {"measurement": "Masking Component Intensity", "setting": "[7]; 100 ppm added", "result": 3.8}, {"measurement": "Off-Flavor Intensity", "setting": "[7]; 100 ppm added", "result": 1.0}, {"measurement": "Masking Component Intensity", "setting": "[7]; 100 ppt added", "result": 0.3}, {"measurement": "Off-Flavor Intensity", "setting": "[7]; 100 ppt added", "result": 3.8}]}
